Data reported in PubChem BioAssay (NCI).
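Abbreviation: GI50, concentration required for 50% inhibition of growth. TGI marks complete inhibition of growth.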

Tests used:
Assay in all cases: growth of human tumour cells (NCI), 384-well format
A498 renal = tested on: A498 renal
HOP-62 NSCLC = tested on: HOP-62 NSCLC
M14 melanoma = tested on: M14 melanoma
MDA-MB-435 melanoma = tested on: MDA-MB-435 melanoma
OVCAR-5 ovarian = tested on: OVCAR-5 ovarian
OVCAR-8 ovarian = tested on: OVCAR-8 ovarian
RPMI-8226 leukemia = tested on: RPMI-8226 leukemia
SF-268 CNS = tested on: SF-268 CNS
SK-MEL-2 melanoma = tested on: SK-MEL-2 melanoma
SK-MEL-28 melanoma = tested on: SK-MEL-28 melanoma
SK-MEL-5 melanoma = tested on: SK-MEL-5 melanoma
SNB-75 CNS = tested on: SNB-75 CNS
T-47D breast = tested on: T-47D breast

In the case of `NC1(c2ccc(-c3nc4ccn5c(=O)[nH]nc5c4cc3-c3ccccc3)cc2)CCC1`, the GI50 (A498 renal) is reported as 134 nM, the TGI (A498 renal) is reported as 1190 nM and the GI50 (HOP-62 NSCLC) is reported as 2680 nM. The TGI (HOP-62 NSCLC) was 7930 nM, the GI50 (M14 melanoma) was 1440 nM and the TGI (M14 melanoma) was 2770 nM. For the same compound, the GI50 (MDA-MB-435 melanoma) was 2360 nM, the TGI (MDA-MB-435 melanoma) was 7210 nM and the GI50 (OVCAR-5 ovarian) was 2130 nM. For the same compound, the TGI (OVCAR-5 ovarian) was 7160 nM, the GI50 (OVCAR-8 ovarian) was 1760 nM and the TGI (OVCAR-8 ovarian) was 3960 nM. The GI50 (RPMI-8226 leukemia) was 1480 nM, the TGI (RPMI-8226 leukemia) was 3240 nM and the GI50 (SF-268 CNS) was 2730 nM. The TGI (SF-268 CNS) was 7370 nM, the GI50 (SK-MEL-2 melanoma) was 1590 nM and the TGI (SK-MEL-2 melanoma) was 2950 nM. The GI50 (SK-MEL-28 melanoma) was 1200 nM, the TGI (SK-MEL-28 melanoma) was 2500 nM and the GI50 (SK-MEL-5 melanoma) was 777 nM. The TGI (SK-MEL-5 melanoma) was 1930 nM, the GI50 (SNB-75 CNS) was 239 nM and the TGI (SNB-75 CNS) was 1780 nM. The GI50 (T-47D breast) was 27.2 nM and the TGI (T-47D breast) was 629 nM.
